From patent publication US12402622B2, “Agricultural compositions and methods of use thereof” (Valent U.S.A. LLC, priority 2019, dated 2025)

Assays:
corn = assay: Control of corn (12 inches), spray chamber, Example 2; assay type: in vivo; conditions: S-3100 20 g/HA, mannitol or sorbitol 6800 g/HA where combined
Method: 4 trials were conducted on the efficacy of S-3100 with or without mannitol or sorbitol. Specifically, 4 plots of corn were grown to 12 inches in height. These plots were placed in a spray chamber for treatment. All compositions contained 1% v/v of Agridex® and 0.25% v/v of Induce®. Treatments and results can be found in Table 2, below.

[1] = tested on: soybean petioles/leaves at V6 stage; assay: Soybean petiole detached assay (translocation of S-3100), Example 6; assay type: in vivo; conditions: 21 DAT, S-3100 20 g/HA, mannitol or sorbitol 6800 g/HA, FIG. 1
Method: FIG. 1. Soybean plant leaf at V6 stage. A. untreated control. B. Treated with 20 g/HA S-3100. C. Treated with 6800 g/HA mannitol. D. Treated with 6800 g/HA sorbitol. E. Treated with 20 g/HA S-3100 and 6800 g/HA mannitol. F. Treated with 20 g/HA S-3100 and 6800 g/HA sorbitol.
4 plots of soybeans were grown to the V6 stage. Soybean petioles of plants at the V6 stage were treated in a petiole detached assay with 1 of the following 4 treatments: 1) untreated; 2) 20 g/HA S-3100; 3) 20 g/HA S-3100 and 6800 g/HA mannitol or 4) 20 g/HA S-3100 and 6800 g/HA sorbitol. Results were recorded 21 DAT. Results can be seen in FIG. 1.

crabgrass = assay: Control of crabgrass (10 inches), spray chamber, sugar alcohol rate series, Example 3; assay type: in vivo, Digitaria sanguinalis; conditions: for % control: S-3100 20 g/HA alone; for control of crabgrass relative to S-3100 alone: 7 and 14 DAT, sugar alcohol at 1700, 3400, 6800, 13600 and 27200 g/HA with S-3100
Method: 12 trials were conducted on the efficacy of S-3100 with or without mannitol or sorbitol at various application rates. Specifically, 12 plots of crabgrass were grown to 10 inches in height. These plots were placed in a spray chamber for treatment. All compositions contained 1% v/v of Agridex® and 0.25% v/v of Induce®. Treatments and results can be found in Table 3, below.

barnyard grass [2] = assay: Control of barnyard grass (10 inches), spray chamber, sugar alcohol rate series, Example 5; assay type: in vivo, Echinochloa crus-galli; conditions: for % control: S-3100 20 g/HA alone; for control of barnyard grass relative to S-3100 alone: 7 and 14 DAT, sugar alcohol at 1700, 3400, 6800, 13600 and 27200 g/HA with S-3100
Method: 12 trials were conducted on the efficacy of S-3100 with or without mannitol or sorbitol at various application rates. Specifically, 12 plots of barnyard grass were grown to 10 inches in height. These plots were placed in a spray chamber for treatment. All compositions contained 1% v/v of Agridex® and 0.25% v/v of Induce®. Treatments and results can be found in Table 5, below.

barnyard grass [3] = assay: Control of barnyard grass (6 inches), spray chamber, Example 1; assay type: in vivo, Echinochloa crus-galli; conditions: S-3100 20 g/HA, mannitol or sorbitol 6800 g/HA where combined
Method: 4 trials were conducted on the efficacy of ethyl [3-[2-chloro-4-fluoro-5-(1-methyl-6-trifluoromethyl-2,4-dioxo-1,2,3,4-tetrahydropyrimidin-3-yl)phenoxy]-2-pyridyloxy]acetate (“S-3100”) with or without mannitol or sorbitol. Specifically, 4 plots of barnyard grass were grown to 6 inches in height. These plots were placed in a spray chamber for treatment. All compositions contained 1% v/v of Agridex® and 0.25% v/v of Induce®. Treatments and results can be found in Table 1, below.

volunteer corn = assay: Control and lodging of volunteer corn (14 inches), spray chamber, sugar alcohol rate series, Example 4; assay type: in vivo; conditions: for lodging on addition of the sugar alcohol to S-3100: addition to S-3100, rate not given; for control of volunteer corn relative to S-3100 alone: sugar alcohol at 1700, 3400, 6800, 13600 and 27200 g/HA with S-3100
Method: 12 trials were conducted on the efficacy of S-3100 with or without mannitol or sorbitol at various application rates. Specifically, 12 plots of volunteer corn were grown to 14 inches in height. These plots were placed in a spray chamber for treatment. All compositions contained 1% v/v of Agridex® and 0.25% v/v of Induce®. Treatments and results can be found in Table 4, below.

Compound	% control (corn; 9 days after treatment, 1% v/v Agridex, 0.25% v/v Induce)	% control (corn; 13 days after treatment)	% control (corn; 22 days after treatment)	leaf symptoms (necrosis, yellowing, bronzing) as sign of translocation [1]	% control (crabgrass; 7 DAT)	% control (crabgrass; 14 DAT)	% control (barnyard grass [2]; 7 DAT)	% control (barnyard grass [2]; 14 DAT)	% control (barnyard grass [3]; 2 days after treatment, 1% v/v Agridex, 0.25% v/v Induce)	% control (barnyard grass [3]; 7 days after treatment)	% control (barnyard grass [3]; 13 days after treatment)	% control (barnyard grass [3]; 20 days after treatment)	% control (volunteer corn; 7 DAT, S-3100 20 g/HA alone)	% lodging (volunteer corn; 8 DAT, S-3100 20 g/HA alone)	control of crabgrass relative to S-3100 alone (crabgrass)	control of barnyard grass relative to S-3100 alone (barnyard grass [2])	lodging on addition of the sugar alcohol to S-3100 (volunteer corn)	control of volunteer corn relative to S-3100 alone (volunteer corn)
CCOC(=O)COc1ncccc1Oc1cc(-n2c(=O)cc(C(F)(F)F)n(C)c2=O)c(F)cc1Cl [S-3100, ethyl [3-[2-chloro-4-fluoro-5-(1-methyl-6-trifluoromethyl-2,4-dioxo-1,2,3,4-tetrahydropyrimidin-3-yl)phenoxy]-2-pyridyloxy]acetate]	55.8%	52.5%	25%	leaf yellowing and vein necrosis especially on the main vascular tissue	81.3%	76.9%	94.1%	89.1%	27.2%	72.1%	49.3%	40%	80.6%	75%				
OC[C@@H](O)[C@@H](O)[C@H](O)[C@@H](O)CO [sorbitol]															increase control of crabgrass over S-3100 alone	increase control of barnyard grass over S-3100 alone	100%	increase control of volunteer corn over S-3100 alone
OC[C@@H](O)[C@@H](O)[C@H](O)[C@H](O)CO [mannitol]				necrotic areas on the leaf tissue											increase control of crabgrass over S-3100 alone	increase control of barnyard grass over S-3100 alone	did not increase lodging	increase control of volunteer corn over S-3100 alone
